The target of the experiment is T1, P2X3 receptor (Mus musculus, UniProt Q3UR32).
T1 construct: gene P2rx3; native receptor in cultured mouse trigeminal ganglion neurons (WT)
T1 sequence (Q3UR32 1-397): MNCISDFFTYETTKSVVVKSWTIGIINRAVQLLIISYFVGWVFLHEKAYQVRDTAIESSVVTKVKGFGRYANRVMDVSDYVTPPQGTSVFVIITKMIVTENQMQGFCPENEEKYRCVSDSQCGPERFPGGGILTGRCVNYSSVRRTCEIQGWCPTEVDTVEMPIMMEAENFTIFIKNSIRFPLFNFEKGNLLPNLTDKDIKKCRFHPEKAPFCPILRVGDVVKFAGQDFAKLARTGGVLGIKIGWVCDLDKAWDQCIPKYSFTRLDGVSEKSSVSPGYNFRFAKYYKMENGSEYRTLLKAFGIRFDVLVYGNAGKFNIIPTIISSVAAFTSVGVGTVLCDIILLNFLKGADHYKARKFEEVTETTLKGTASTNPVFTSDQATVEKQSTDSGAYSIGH
Nature of the experiment: whole-cell patch clamp, agonist concentration-response on native neurons. The format is cell-based. (The patch-clamp technique gives a direct electrical read-out from membranes.)

The structures appear in SMILES notation.

As for `Nc1ncnc2c1ncn2[C@@H]1O[C@H](COP(=O)(O)CP(=O)(O)OP(=O)(O)O)[C@@H](O)[C@H]1O` [α,β-meATP], the EC50 – broadly, the concentration at which the effect is half-maximal – is 6.9 ± 1.1 µM.

The values above are taken from article PMC2940876, “Familial hemiplegic migraine CaV2.1 channel mutation R192Q enhances ATP-gated P2X3 receptor activity of mouse sensory ganglion neurons mediating trigeminal pain” (2010).
